Results as given in ChEMBL document CHEMBL6134930, “Discovery of AB801, a Potent and Selective Inhibitor of AXL Receptor Tyrosine Kinase for Use in Cancer Therapy” (J Med Chem, 2025).
Calls of active or inactive are those of the source. No cut-off for these calls is given here.

Experiments:
[1] = Metabolic stability in human hepatocytes assessed as intrinsic clearance measured per 10^6 cells; assay type: ADME, cell-based, Hepatocyte; settings: read-out: CLH
[2] = Tmax in human (healthy individuals) at 90 mg, single oral dose; assay type: ADME; settings: in vivo
[3] = Tmax in human (healthy individuals) at 270 mg, single oral dose; assay type: ADME; settings: in vivo
[4] = Cmax in human (healthy individuals) at 10 mg, single oral dose measured uo to 120 hrs; assay type: ADME; settings: in vivo
Cytochrome P450 2B6 = target: T1, Cytochrome P450 2B6 (Homo sapiens, UniProt P20813); assay: Inhibition of CYP2B6 (unknown origin) measured after 30 mins; assay type: ADME
T1 sequence (P20813 whole entry): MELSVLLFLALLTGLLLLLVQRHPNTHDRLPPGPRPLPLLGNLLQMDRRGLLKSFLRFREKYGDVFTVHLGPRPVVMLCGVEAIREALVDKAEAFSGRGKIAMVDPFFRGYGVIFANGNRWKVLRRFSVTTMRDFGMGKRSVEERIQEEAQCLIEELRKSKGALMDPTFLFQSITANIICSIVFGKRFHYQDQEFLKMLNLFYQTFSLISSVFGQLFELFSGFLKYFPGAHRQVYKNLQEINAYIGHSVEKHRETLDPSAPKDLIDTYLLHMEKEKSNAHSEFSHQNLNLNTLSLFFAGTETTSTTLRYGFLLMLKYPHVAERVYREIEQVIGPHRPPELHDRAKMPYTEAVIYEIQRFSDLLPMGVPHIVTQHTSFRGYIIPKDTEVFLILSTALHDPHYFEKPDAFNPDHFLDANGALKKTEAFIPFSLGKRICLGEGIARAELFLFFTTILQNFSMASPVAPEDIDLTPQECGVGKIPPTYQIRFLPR

786-0 [5] = assay: Anti-tumor activity against human 786-0 cells xenografted in mouse model assessed as tumor growth inhibition at 30 mg/kg, po once daily for 15 days; assay type: functional, organism-based; settings: time 15.0 day
[6] = AUC (0 to 24 hrs) in human (healthy individuals) at 270 mg, single oral dose; assay type: ADME; settings: in vivo
[7] = target: T2, Tyrosine-protein kinase receptor UFO (Homo sapiens, UniProt P30530); assay: Inhibition of human AXL measured after 150 mins by ATP-competitive HTRF based biochemical assay
T2 sequence (P30530 whole entry): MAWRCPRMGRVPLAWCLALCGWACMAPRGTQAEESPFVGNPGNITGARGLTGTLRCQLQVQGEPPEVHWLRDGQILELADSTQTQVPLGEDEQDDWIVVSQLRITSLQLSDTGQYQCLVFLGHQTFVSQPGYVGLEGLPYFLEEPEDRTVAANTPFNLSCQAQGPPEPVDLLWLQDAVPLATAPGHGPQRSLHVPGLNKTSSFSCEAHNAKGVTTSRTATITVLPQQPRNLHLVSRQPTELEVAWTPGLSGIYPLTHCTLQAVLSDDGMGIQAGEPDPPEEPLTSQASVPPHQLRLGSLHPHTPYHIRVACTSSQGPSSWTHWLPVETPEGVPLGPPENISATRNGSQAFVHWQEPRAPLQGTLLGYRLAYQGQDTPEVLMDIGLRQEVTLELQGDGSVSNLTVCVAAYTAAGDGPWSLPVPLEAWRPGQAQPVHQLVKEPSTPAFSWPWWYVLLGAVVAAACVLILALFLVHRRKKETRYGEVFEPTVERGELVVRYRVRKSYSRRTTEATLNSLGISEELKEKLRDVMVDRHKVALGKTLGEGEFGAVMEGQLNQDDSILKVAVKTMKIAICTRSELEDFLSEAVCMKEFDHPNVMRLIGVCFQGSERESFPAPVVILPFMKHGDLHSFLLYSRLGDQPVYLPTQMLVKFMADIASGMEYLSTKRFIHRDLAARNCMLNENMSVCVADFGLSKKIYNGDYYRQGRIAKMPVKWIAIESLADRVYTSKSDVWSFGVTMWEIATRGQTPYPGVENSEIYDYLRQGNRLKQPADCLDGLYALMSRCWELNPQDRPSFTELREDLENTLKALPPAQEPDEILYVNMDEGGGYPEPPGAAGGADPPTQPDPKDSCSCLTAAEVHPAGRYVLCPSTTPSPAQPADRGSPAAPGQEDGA

CYP2C8 = target: T3, CYP2C8 (Homo sapiens, UniProt P10632); assay: Time dependent inhibition of CYP2C8 (unknown origin) at 30 uM measured after 30 mins relative to control; assay type: ADME; settings: read-out: TDI
T3 sequence (P10632 whole entry): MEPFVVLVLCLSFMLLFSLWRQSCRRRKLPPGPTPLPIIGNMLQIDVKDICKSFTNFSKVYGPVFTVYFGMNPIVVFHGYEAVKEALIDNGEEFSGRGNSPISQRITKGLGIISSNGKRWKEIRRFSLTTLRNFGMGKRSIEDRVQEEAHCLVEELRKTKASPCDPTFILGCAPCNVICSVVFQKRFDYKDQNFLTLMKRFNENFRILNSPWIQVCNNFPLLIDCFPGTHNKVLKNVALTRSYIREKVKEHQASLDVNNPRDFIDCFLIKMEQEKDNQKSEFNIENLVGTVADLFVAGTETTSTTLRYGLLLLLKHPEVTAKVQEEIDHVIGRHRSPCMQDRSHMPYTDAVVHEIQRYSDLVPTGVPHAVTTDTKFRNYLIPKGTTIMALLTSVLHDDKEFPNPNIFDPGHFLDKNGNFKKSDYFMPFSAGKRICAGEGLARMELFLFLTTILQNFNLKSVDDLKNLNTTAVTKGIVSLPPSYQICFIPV

[8] = Toxicity in mouse xenografted with human 786-0 cells assessed as body weight in presence of sunitinib at 10 mg/kg, po once daily for 15 days; assay type: organism-based; settings: in vivo, 360 h, time 15 day
786-0 [9] = assay: Anti-tumor activity against human 786-0 cells xenografted in mouse model assessed as tumor growth inhibition in presence of sunitinib at 30 mg/kg, po once daily for 15 days; assay type: functional, organism-based; settings: time 15.0 day
[10] = Toxicity in mouse xenografted with human 786-0 cells assessed as body weight in presence of sunitinib at 30 mg/kg, po once daily for 15 days; assay type: organism-based; settings: in vivo, 360 h, time 15 day
786-0 [11] = assay: Anti-tumor activity against human 786-0 cells xenografted in mouse model assessed as reduction in tumor volume in presence of sunitinib at 10 mg/kg, po once daily for 15 days; assay type: functional, organism-based; settings: time 15.0 day
[12] = Cmax in human (healthy individuals) at 270 mg, single oral dose measured uo to 120 hrs; assay type: ADME; settings: in vivo
[13] = Clearance in cynomolgus monkey at 0.5 mg/kg, iv measured up to 24 hrs by LC-MS/MS analysis; assay type: ADME, organism-based, Macaca fascicularis; settings: in vivo
[14] = Selectivity ratio, ratio of Ki for HPK1 (unknown origin) to Ki for AXL (unknown origin)
[15] = AUC (0 to 24 hrs) in human (healthy individuals) at 10 mg, single oral dose; assay type: ADME; settings: in vivo
[16] = Cmax in human (healthy individuals) at 30 mg, single oral dose measured uo to 120 hrs; assay type: ADME; settings: in vivo
[17] = Clearance in Sprague-Dawley rat at 0.5 mg/kg, iv measured up to 24 hrs by LC-MS/MS analysis; assay type: ADME, organism-based; settings: in vivo
Cytochrome P450 2C9 = Cytochrome P450 2C9 (Homo sapiens, UniProt P11712); assay: Inhibition of CYP2C9 (unknown origin) measured after 30 mins; assay type: ADME
[18] = Metabolic stability in rat hepatocytes assessed as intrinsic clearance measured per 10^6 cells; assay type: ADME, cell-based, Hepatocyte; settings: read-out: CLH

Sequence of Cytochrome P450 2C9 (P11712 whole entry): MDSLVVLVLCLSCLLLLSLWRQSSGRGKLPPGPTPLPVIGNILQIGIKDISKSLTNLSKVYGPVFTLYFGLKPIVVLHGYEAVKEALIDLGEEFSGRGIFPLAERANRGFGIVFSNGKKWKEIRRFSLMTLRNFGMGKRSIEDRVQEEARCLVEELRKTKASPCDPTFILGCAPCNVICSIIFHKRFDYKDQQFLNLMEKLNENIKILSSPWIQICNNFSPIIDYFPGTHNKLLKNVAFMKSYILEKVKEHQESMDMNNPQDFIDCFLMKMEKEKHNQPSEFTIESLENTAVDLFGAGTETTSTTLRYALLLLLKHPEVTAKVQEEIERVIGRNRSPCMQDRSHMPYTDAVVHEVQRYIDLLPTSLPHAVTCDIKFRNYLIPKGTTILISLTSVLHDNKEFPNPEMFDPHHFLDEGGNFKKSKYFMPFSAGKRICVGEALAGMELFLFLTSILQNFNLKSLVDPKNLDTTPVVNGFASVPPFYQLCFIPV

Cc1cccnc1-c1ccc(-c2n[nH]c3ncc(-c4ccc5c(c4)CC[C@@H](N4C6COCC4C6)CC5)cc23)nc1
hepatocyte CLint [1]: 1.8 µL/min/1e6 cells
Tmax [2]: 8 h
Tmax [3]: 8 h
Cmax [4]: 3 ng/mL
IC50 (Cytochrome P450 2B6): > 100 µM
Activity (786-0 [5]): inactive
AUC(0-t) [6]: 2580 ng·h/mL
IC50 [7]: 0.0018 µM
inhibition at 0.5 h, 30 µM (CYP2C8): 0%
Activity [8]: Non-toxic
Activity (786-0 [9]): Active
Activity [10]: Non-toxic
Activity (786-0 [11]): Active
Cmax [12]: 153 ng/mL
clearance [13]: 12.7 mL/min/kg
Ratio Ki [14]: 280
AUC(0-t) [15]: 55 ng·h/mL
Cmax [16]: 12 ng/mL
clearance [17]: 10.8 mL/min/kg
IC50 (Cytochrome P450 2C9): 91 µM
hepatocyte CLint [18]: 20 µL/min/1e6 cells
